# The supplement of paper PMC10307832
# Assays:
# Test in all cases: relative viability (nuclei count vs DMSO), 5 days (fraction); higher = more cells survive
# A-427 = test system: A-427
# Outline: (§1)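 Medians of duplicate plates are given as relative viability. That measure is the nuclei count in treated wells divided by the count in vehicle wells. Counts were taken on 4× images of lung cancer cell lines in 1536-well plates, 5 days after pin-tool dosing the day after seeding with one drug alone or a fixed anchor-drug dose plus five library-drug doses (not always all listed) in √10 steps.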
# NCI-H520 = test system: NCI-H520
# Outline: as §1
# 201T = test system: 201T
# Outline: as §1
# H3255 = test system: H3255
# Outline: as §1
# NCI-H596 = test system: NCI-H596
# Outline: as §1
# ABC-1 = test system: ABC-1
# Outline: as §1
# BEN = test system: BEN
# Outline: as §1
# NCI-H1651 = test system: NCI-H1651
# Outline: as §1
# NCI-H2023 = test system: NCI-H2023
# Outline: as §1
# LCLC-97TM1 = test system: LCLC-97TM1
# Outline: as §1
# NCI-H1650 = test system: NCI-H1650
# Outline: as §1
# LC-2-ad = test system: LC-2-ad
# Outline: as §1
# NCI-H2087 = test system: NCI-H2087
# Outline: as §1
# NCI-H460 = test system: NCI-H460
# Outline: as §1
# NCI-H441 = test system: NCI-H441
# Outline: as §1
# NCI-H661 = test system: NCI-H661
# Outline: as §1
# NCI-H727 = test system: NCI-H727
# Outline: as §1
# PC-3 [JPC-3] = test system: PC-3 [JPC-3]
# Outline: as §1
# NCI-H650 = test system: NCI-H650
# Outline: as §1
# HCC-15 = test system: HCC-15
# Outline: as §1
# NCI-H1944 = test system: NCI-H1944
# Outline: as §1
# NCI-H1915 = test system: NCI-H1915
# Outline: as §1
# CAL-12T = test system: CAL-12T
# Outline: as §1
# NCI-H1792 = test system: NCI-H1792
# Outline: as §1
compound,measurement,setting,value
CC(C)Oc1cc(Nc2nc(N[C@@H](C)c3ccc(F)cn3)ncc2Cl)n[nH]1 [AZ23] + O=C(c1cc(Cc2n[nH]c(=O)c3ccccc23)ccc1F)N1CCN(C(=O)C2CC2)CC1 [Olaparib] (partner 8 µM),relative viability,A-427; first compound 0.01 µM,0.82
same,relative viability,A-427; first compound 0.03162 µM,0.885
same,relative viability,A-427; first compound 0.3162 µM,0.856
same,relative viability,NCI-H520; first compound 0.01 µM,0.346
same,relative viability,NCI-H520; first compound 0.03162 µM,0.328
same,relative viability,NCI-H520; first compound 0.3162 µM,0.312
same,relative viability,201T; first compound 0.01 µM,0.899
same,relative viability,201T; first compound 0.03162 µM,0.872
same,relative viability,201T; first compound 0.3162 µM,0.85
same,relative viability,H3255; first compound 0.01 µM,0.524
same,relative viability,H3255; first compound 0.03162 µM,0.581
same,relative viability,H3255; first compound 0.3162 µM,0.542
same,relative viability,NCI-H596; first compound 0.01 µM,0.603
same,relative viability,NCI-H596; first compound 0.03162 µM,0.749
same,relative viability,NCI-H596; first compound 0.3162 µM,0.665
same,relative viability,ABC-1; first compound 0.01 µM,0.971
same,relative viability,ABC-1; first compound 0.03162 µM,0.781
same,relative viability,ABC-1; first compound 0.3162 µM,0.673
same,relative viability,BEN; first compound 0.01 µM,1.03
same,relative viability,BEN; first compound 0.03162 µM,1.24
same,relative viability,BEN; first compound 0.3162 µM,1.16
same,relative viability,NCI-H1651; first compound 0.01 µM,0.182
same,relative viability,NCI-H1651; first compound 0.03162 µM,0.166
same,relative viability,NCI-H1651; first compound 0.3162 µM,0.19
same,relative viability,NCI-H2023; first compound 0.03162 µM,0.572
same,relative viability,NCI-H2023; first compound 0.3162 µM,0.573
same,relative viability,LCLC-97TM1; first compound 0.01 µM,0.299
same,relative viability,LCLC-97TM1; first compound 0.03162 µM,0.526
same,relative viability,LCLC-97TM1; first compound 0.3162 µM,0.416
same,relative viability,NCI-H1650; first compound 0.01 µM,0.685
same,relative viability,NCI-H1650; first compound 0.03162 µM,0.97
same,relative viability,NCI-H1650; first compound 0.3162 µM,0.876
same,relative viability,LC-2-ad; first compound 0.01 µM,0.811
same,relative viability,LC-2-ad; first compound 0.03162 µM,0.772
same,relative viability,LC-2-ad; first compound 0.3162 µM,0.824
same,relative viability,NCI-H2087; first compound 0.01 µM,0.819
same,relative viability,NCI-H2087; first compound 0.03162 µM,0.73
same,relative viability,NCI-H2087; first compound 0.3162 µM,0.642
same,relative viability,NCI-H460; first compound 0.01 µM,0.24
same,relative viability,NCI-H460; first compound 0.03162 µM,0.518
same,relative viability,NCI-H460; first compound 0.3162 µM,0.481
same,relative viability,NCI-H441; first compound 0.01 µM,0.645
same,relative viability,NCI-H441; first compound 0.03162 µM,0.69
same,relative viability,NCI-H441; first compound 0.3162 µM,0.494
same,relative viability,NCI-H661; first compound 0.01 µM,0.823
same,relative viability,NCI-H661; first compound 0.03162 µM,0.792
same,relative viability,NCI-H661; first compound 0.3162 µM,0.738
same,relative viability,NCI-H727; first compound 0.01 µM,0.751
same,relative viability,NCI-H727; first compound 0.03162 µM,0.678
same,relative viability,NCI-H727; first compound 0.3162 µM,0.689
same,relative viability,PC-3 [JPC-3]; first compound 0.01 µM,1.35
same,relative viability,PC-3 [JPC-3]; first compound 0.03162 µM,1.41
same,relative viability,PC-3 [JPC-3]; first compound 0.3162 µM,1.17
same,relative viability,NCI-H650; first compound 0.01 µM,0.483
same,relative viability,NCI-H650; first compound 0.03162 µM,0.454
same,relative viability,NCI-H650; first compound 0.3162 µM,0.357
same,relative viability,HCC-15; first compound 0.01 µM,1.02
same,relative viability,HCC-15; first compound 0.03162 µM,0.698
same,relative viability,HCC-15; first compound 0.3162 µM,0.747
same,relative viability,NCI-H1944; first compound 0.01 µM,0.443
same,relative viability,NCI-H1944; first compound 0.03162 µM,0.472
same,relative viability,NCI-H1944; first compound 0.3162 µM,0.448
same,relative viability,NCI-H1915; first compound 0.01 µM,0.259
same,relative viability,NCI-H1915; first compound 0.03162 µM,0.253
same,relative viability,NCI-H1915; first compound 0.3162 µM,0.275
same,relative viability,CAL-12T; first compound 0.01 µM,0.752
same,relative viability,CAL-12T; first compound 0.03162 µM,0.747
same,relative viability,CAL-12T; first compound 0.3162 µM,0.745
same,relative viability,NCI-H1792; first compound 0.01 µM,0.27
same,relative viability,NCI-H1792; first compound 0.03162 µM,0.594
same,relative viability,NCI-H1792; first compound 0.3162 µM,0.373
